The results in this text go back to patent publication US7671084B2 (Wyeth, priority 2004, dated 2010).

The target of one data set is T1, human ERβ (Homo sapiens, UniProt Q92731).
T1 construct: made in house; host or cells: E. coli (crude lysate)
Put plainly: Competition with [3H]-17β-estradiol for binding to ERβ. The settings on record: ligand binding domain of human ERβ in E. coli crude lysate, 2 nM [3H]-17β-estradiol, 5-15 hours at room temperature. The procedure: Representative examples of the invention were evaluated for their ability to compete with 17β-estradiol for both ERα and ERβ. This test procedure provides the methodology for one to determine whether a particular compound binds to the estrogen receptor (and is therefore “estrogenic”) and whether there is selectivity for ERα or ERβ. […] 17β-estradiol is included as a standard reference for comparison. The procedure used is briefly described below. A crude lysate of E. coli expressing the estrogen receptor ligand binding domains (D, E, & F) of human ERα or ERβ was prepared. Both receptors and compounds were diluted in 1× Dulbecco's PBS (DPBS) supplemented with 1 mM EDTA. Using a high binding masked microtiter plate, 100 uL of receptor (1 uG/well) was combined with 2 nm [^3H]-17β-estradiol and various concentrations of compound. After between 5 and 15 hours at room temperature, the plates were washed with DPBS/1 mM EDTA and bound radioactivity determined by liquid scintillation counting. The IC50 is defined as the concentration of compound that decreases total 17β-estradiol binding by 50%.

Another data set deals with T2, human ERα (Homo sapiens, UniProt P03372).
T2 construct: made in house; host or cells: E. coli (crude lysate)
T2 sequence (P03372 311-547 limits assumed): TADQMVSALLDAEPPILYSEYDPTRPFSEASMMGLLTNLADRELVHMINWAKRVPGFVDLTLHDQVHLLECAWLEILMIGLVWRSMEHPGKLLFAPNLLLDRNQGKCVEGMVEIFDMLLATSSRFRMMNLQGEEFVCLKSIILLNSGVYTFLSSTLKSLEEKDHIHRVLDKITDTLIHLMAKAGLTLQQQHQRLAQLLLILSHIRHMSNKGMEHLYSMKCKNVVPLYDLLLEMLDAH
Put plainly: Competition with [3H]-17β-estradiol for binding to ERα. As to conditions: ligand binding domain of human ERα in E. coli crude lysate, 2 nM [3H]-17β-estradiol, 5-15 hours at room temperature. The procedure: Representative examples of the invention were evaluated for their ability to compete with 17β-estradiol for both ERα and ERβ. This test procedure provides the methodology for one to determine whether a particular compound binds to the estrogen receptor (and is therefore “estrogenic”) and whether there is selectivity for ERα or ERβ. The values are shown in the Table infra and are reported as IC50s. 17β-estradiol is included as a standard reference for comparison. The procedure used is briefly described below. A crude lysate of E. coli expressing the estrogen receptor ligand binding domains (D, E, & F) of human ERα or ERβ was prepared. Both receptors and compounds were diluted in 1× Dulbecco's PBS (DPBS) supplemented with 1 mM EDTA. Using a high binding masked microtiter plate, 100 uL of receptor (1 uG/well) was combined with 2 nm [^3H]-17β-estradiol and various concentrations of compound. After between 5 and 15 hours at room temperature, the plates were washed with DPBS/1 mM EDTA and bound radioactivity determined by liquid scintillation counting. The IC50 is defined as the concentration of compound that decreases total 17β-estradiol binding by 50%.

Where a name gives a salt, the structure may show the parent alone. Read-outs that look alike come from different tables or passages of the source.

T1 sequence (Q92731 264-498 limits assumed): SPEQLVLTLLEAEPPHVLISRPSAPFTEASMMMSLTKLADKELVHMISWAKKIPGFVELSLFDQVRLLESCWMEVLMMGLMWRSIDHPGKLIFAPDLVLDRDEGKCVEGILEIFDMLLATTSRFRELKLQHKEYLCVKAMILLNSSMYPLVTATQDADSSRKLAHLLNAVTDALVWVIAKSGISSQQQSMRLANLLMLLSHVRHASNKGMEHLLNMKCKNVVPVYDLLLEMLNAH

The melting point is the temperature, or range, at which the solid turns liquid. Consider `Oc1ccc2c(c1)COc1c-2cc2ccc(O)cc2c1-c1ccncc1` (as salt: HCl) [Example 37, 7-(4-Pyridyl)-5H-dibenzo[c,g]chromene-3,9-diol], for which the melting point was above 250 °C.
By IC50 is commonly meant the concentration needed to halve the response being measured. In turn, `Oc1ccc2c(c1)COc1cc3cc(O)ccc3cc1-2` [Example 4, 5H-Dibenzo[c,g]chromene-3,9-diol] returned a melting point of 231 to 233 °C. In addition, the IC50 at human ERβ turned out to be 7.9 nM. Besides, the half-inhibitory concentration (IC50) on human ERα (read-out: ERα (nM) IC50) came out at 63 nM.
Molecule `Oc1ccc2c(c1)COc1ccc3ccc(O)cc3c1-2` [Example 5, 5H-Dibenzo[c,f]chromene-3,11-diol] yielded a melting point of 199 to 201 °C.
`Oc1ccc2c(c1)COc1cc3c(Cl)c(O)ccc3cc1-2` [Example 6, 8-Chloro-5H-dibenzo[c,g]chromene-3,9-diol]: the melting point lay within 212 to 214 °C. The IC50 at human ERβ is 0.53 nM. On human ERα (read-out: ERα (nM) IC50), the IC50 stood at 21 nM.
As for `Oc1ccc2c(c1)COc1c-2cc2ccc(O)cc2c1Cl` [Example 12, 7-Chloro-5H-dibenzo[c,g]chromene-3,9-diol], the IC50 is 1.5 nM at human ERβ and 15 nM at human ERα (read-out: ERα (nM) IC50).
The corresponding values for `Oc1ccc2c(c1)COc1c-2cc2ccc(O)cc2c1Br` [Example 13, 7-Bromo-5H-dibenzo[c,g]chromene-3,9-diol] are 1.2 nM and 13 nM.
For `N#Cc1c2c(cc3ccc(O)cc13)-c1ccc(O)cc1CO2` [Example 14, 3,9-Dihydroxy-5H-dibenzo[c,g]chromene-7-carbonitrile], the melting point was above 280 °C. The molecule further registered an IC50 at human ERβ of 2.7 nM. The half-inhibitory concentration (IC50) at human ERα (read-out: ERα (nM) IC50) stood at 32 nM.
As to `COc1c2c(cc3ccc(O)cc13)-c1ccc(O)cc1CO2` [Example 15, 7-Methoxy-5H-dibenzo[c,g]chromene-3,9-diol], the IC50 on human ERβ was found to be 4.3 nM; at human ERα (read-out: ERα (nM) IC50), 169 nM.
For the molecule `C=Cc1c2c(cc3ccc(O)cc13)-c1ccc(O)cc1CO2` [Example 16, 7-Vinyl-5H-dibenzo[c,g]chromene-3,9-diol], the figures for the IC50 at human ERβ and on human ERα (read-out: ERα (nM) IC50) were 2 nM and 44 nM, respectively.
The corresponding values for `COc1c2c(c(Br)c3ccc(O)cc13)-c1ccc(O)cc1CO2` [Example 19, 12-Bromo-7-methoxy-5H-dibenzo[c,g]chromene-3,9-diol] are 3.3 nM and 12 nM.
Turning to `COc1c2c(c(Cl)c3ccc(O)cc13)-c1ccc(O)cc1CO2` [Example 20, 12-Chloro-7-methoxy-5H-dibenzo[c,g]chromene-3,9-diol], the values for the IC50 on human ERβ and on human ERα (read-out: ERα (nM) IC50) were 1.4 nM and 13 nM, respectively.
`Cc1c2c(cc3ccc(O)cc13)-c1ccc(O)cc1CO2` [Example 21, 7-Methyl-5H-dibenzo[c,g]chromene-3,9-diol]: the melting point lay within 224 to 226 °C. The molecule further came in with an IC50 at human ERβ of 1 nM. Moreover, at human ERα (read-out: ERα (nM) IC50), the IC50 turned out to be 17 nM.
Consider `OCc1ccccc1-c1c2c(cc3ccc(O)cc13)-c1ccc(O)cc1CO2` [Example 22, 7-[2-(Hydroxymethyl)phenyl]-5H-dibenzo[c,g]chromene-3,9-diol], for which the melting point was in the range of 171 to 173 °C. The molecule further gave an IC50 on human ERβ of 349 nM. In addition, the IC50 at human ERα (read-out: ERα (nM) IC50) was 531 nM.
On the same counts, the results for `Oc1ccc2c(c1)COc1c-2cc2ccc(O)cc2c1-c1ccccc1` [Example 23, 7-Phenyl-5H-dibenzo[c,g]chromene-3,9-diol] are 225 to 227 °C, 4.1 nM and 137 nM.
Molecule `Cc1ccccc1-c1c2c(cc3ccc(O)cc13)-c1ccc(O)cc1CO2` [Example 24, 7-(2-Tolyl)-5H-dibenzo[c,g]chromene-3,9-diol] yielded a melting point of 193 to 196 °C. Further, the IC50 at human ERβ came out at 11 nM. The IC50 at human ERα (read-out: ERα (nM) IC50) was found to be 487 nM.
As for `Cc1cccc(-c2c3c(cc4ccc(O)cc24)-c2ccc(O)cc2CO3)c1` [Example 25, 7-(3-Tolyl)-5H-dibenzo[c,g]chromene-3,9-diol], the melting point is 219 to 222 °C. The same molecule registered an IC50 on human ERβ of 4.2 nM. Moreover, the IC50 at human ERα (read-out: ERα (nM) IC50) turned out to be 117 nM.
`Cc1ccc(-c2c3c(cc4ccc(O)cc24)-c2ccc(O)cc2CO3)cc1` [Example 26, 7-(4-Tolyl)-5H-dibenzo[c,g]chromene-3,9-diol] gave a melting point of 238 to 240 °C. The same molecule gave an IC50 on human ERβ of 4.1 nM. In addition, the IC50 on human ERα (read-out: ERα (nM) IC50) is 137 nM.
On the same counts, the results for `COc1ccc(-c2c3c(cc4ccc(O)cc24)-c2ccc(O)cc2CO3)cc1` [Example 27, 7-(4-Methoxyphenyl)-5H-dibenzo[c,g]chromene-3,9-diol] are 200 to 203 °C, 9.8 nM and 702 nM.
As for `Oc1ccc2c(c1)COc1c-2cc2ccc(O)cc2c1-c1ccc(Cl)cc1` [Example 28, 7-(4-Chlorophenyl)-5H-dibenzo[c,g]chromene-3,9-diol], the melting point was 239 to 242 °C. Further, the IC50 on human ERβ is 9.3 nM. Moreover, the IC50 at human ERα (read-out: ERα (nM) IC50) turned out to be 320 nM.
The corresponding values for `Oc1ccc2c(c1)COc1c-2cc2ccc(O)cc2c1-c1ccc(F)cc1` [Example 29, 7-(4-Fluorophenyl)-5H-dibenzo[c,g]chromene-3,9-diol] are 229 to 232 °C, 6.4 nM and 298 nM.
On the same counts, the results for `Oc1ccc2c(c1)COc1c-2cc2ccc(O)cc2c1-c1cccs1` [Example 30, 7-Thien-2-yl-5H-dibenzo[c,g]chromene-3,9-diol] are 233 to 236 °C, 1.4 nM and 75 nM.
On the same counts, the results for `Oc1ccc2c(c1)COc1c-2cc2ccc(O)cc2c1-c1ccsc1` [Example 31, 7-Thien-3-yl-5H-dibenzo[c,g]chromene-3,9-diol] are 159 to 161 °C, 4.1 nM and 152 nM.
In turn, `Oc1ccc2c(c1)COc1c-2cc2ccc(O)cc2c1-c1cccc(F)c1` [Example 32, 7-(3-Fluorophenyl)-5H-dibenzo[c,g]chromene-3,9-diol] yielded a melting point of 225 to 227 °C. For the same molecule, the IC50 on human ERβ was determined as 3.3 nM. Further, the IC50 at human ERα (read-out: ERα (nM) IC50) turned out to be 93 nM.
As for `Oc1ccc2c(c1)COc1c-2cc2ccc(O)cc2c1-c1cccc(Cl)c1` [Example 33, 7-(3-Chlorophenyl)-5H-dibenzo[c,g]chromene-3,9-diol], the melting point is 243 to 246 °C. At human ERβ, the IC50 was 18 nM. Besides, the IC50 on human ERα (read-out: ERα (nM) IC50) was 63 nM.
In the case of `Oc1ccc2c(c1)COc1c-2cc2ccc(O)cc2c1-c1ccncc1` [Example 37, 7-(4-Pyridyl)-5H-dibenzo[c,g]chromene-3,9-diol], the concentration for half-maximal inhibition (IC50) on human ERβ was 3.05 nM; on human ERα (read-out: ERα IC50 (cell prints uM)), above 5000 nM.
`COc1ccncc1-c1c2c(cc3ccc(O)cc13)-c1ccc(O)cc1CO2` [Example 51, 7-(4-Methoxy-3-Pyridyl)-5H-dibenzo[c,g]chromene-3,9-diol] showed a melting point above 220 °C.
As to `COc1ccc(-c2c3c(cc4ccc(O)cc24)-c2ccc(O)cc2CO3)cn1` [Example 51], the IC50 was 22 nM at human ERβ and 764 nM on human ERα (read-out: ERα (nM) IC50).
On the same counts, the results for `Oc1ccc2c(c1)COc1c-2cc2ccc(O)cc2c1-c1ncccn1` [Example 52, 7-(Pyrimidyl)-5H-dibenzo[c,g]chromene-3,9-diol] are 60 nM and 1600 nM.
With `Oc1ccc2c(c1)COc1c-2cc2ccc(O)cc2c1-c1ccc(Cl)c(Cl)c1` [Example 55, 7-(3,4-Dichlorophenyl)-5H-dibenzo[c,g]chromene-3,9-diol], the melting point lay in the range of 143 to 145 °C. The IC50 at human ERβ came out at 835 nM.
In the case of `Oc1ccc2c(c1)COc1c-2cc2ccc(O)cc2c1-c1cccc2ccccc12` [Example 61, 7-(Naphthyl)-5H-dibenzo[c,g]chromene-3,9-diol], the IC50 at human ERα (read-out: ERα (nM) IC50) is 172 nM.
As for `Cc1cc(C)cc(-c2c3c(cc4ccc(O)cc24)-c2ccc(O)cc2CO3)c1` [Example 63, 7-(3,5-Dimethylphenyl)-5H-dibenzo[c,g]chromene-3,9-diol], the melting point is 220 to 223 °C.
